{
  "source": "patent US10189816B2",
  "about": "“Substituted pyridines as inhibitors of human immunodeficiency virus replication” (priority 2015, dated 2019)",
  "data": [
    {"test_system": "NL-RLuc virus", "test": "Inhibition of HIV replication (NL-RLuc reporter virus in MT-2 cells, luciferase readout)", "assay_type": "cell-based", "settings": "Human immunodeficiency virus 1, MT2, 120 h, read-out: Activity", "in_short": "(§1)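 Antiviral EC50 came from luciferase signal after 5-day multicycle replication of NL-RLuc virus in MT-2 cells with serially diluted compound (RPMI 1640, 10% heat-inactivated FBS), fitted by the median effect equation over at least 2 experiments.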", "units": {"EC50": "µM"}, "values": [
      {"smiles": "Cc1ccc(CN2CCc3cc(-c4c(C)nc(C)c([C@H](OC(C)(C)C)C(=O)O)c4N4CCC(C)(C)CC4)ccc3C2)c(F)c1F", "note": "[Compound 73, (S)-2-(tert-butoxy)-2-(5-(2-(2,3-difluoro-4-methylbenzyl)-1,2,3,4-tetrahydroisoquinolin-6-yl)-4-(4,4-dimethylpiperidin-1-yl)-2,6-dimethylpyridin-3-yl)acetic acid]", "EC50": "< 0.1"},
      {"smiles": "Cc1ccc(F)c(CN2CCc3cc(-c4c(C)nc(C)c([C@H](OC(C)(C)C)C(=O)O)c4N4CCC(C)(C)CC4)ccc3C2)c1", "note": "[Compound 74, (S)-2-(tert-butoxy)-2-(4-(4,4-dimethylpiperidin-1-yl)-5-(2-(2-fluoro-5-methylbenzyl)-1,2,3,4-tetrahydroisoquinolin-6-yl)-2,6-dimethylpyridin-3-yl)acetic acid]", "EC50": "< 0.1"},
      {"smiles": "Cc1cc(CN2CCc3cc(-c4c(C)nc(C)c([C@H](OC(C)(C)C)C(=O)O)c4N4CCC(C)(C)CC4)ccc3C2)cc(C)c1F", "note": "[Compound 75, (S)-2-(tert-butoxy)-2-(4-(4,4-dimethylpiperidin-1-yl)-5-(2-(4-fluoro-3,5-dimethylbenzyl)-1,2,3,4-tetrahydroisoquinolin-6-yl)-2,6-dimethylpyridin-3-yl)acetic acid]", "EC50": "< 0.1"},
      {"smiles": "Cc1cc(CN2CCc3cc(-c4c(C)nc(C)c([C@H](OC(C)(C)C)C(=O)O)c4N4CCC(C)(C)CC4)ccc3C2)cc(F)c1F", "note": "[Compound 76, (S)-2-(tert-butoxy)-2-(5-(2-(3,4-difluoro-5-methylbenzyl)-1,2,3,4-tetrahydroisoquinolin-6-yl)-4-(4,4-dimethylpiperidin-1-yl)-2,6-dimethylpyridin-3-yl)acetic acid]", "EC50": "< 0.1"},
      {"smiles": "Cc1nc(C)c([C@H](OC(C)(C)C)C(=O)O)c(N2CCC(C)(C)CC2)c1-c1ccc2c(c1)CCN(Cc1ccccc1C(C)C)C2", "note": "[Compound 77, (S)-2-(tert-butoxy)-2-(4-(4,4-dimethylpiperidin-1-yl)-5-(2-(2-isopropylbenzyl)-1,2,3,4-tetrahydroisoquinolin-6-yl)-2,6-dimethylpyridin-3-yl)acetic acid]", "EC50": "< 0.1"},
      {"smiles": "Cc1cc(C)c(CN2CCc3cc(-c4c(C)nc(C)c([C@H](OC(C)(C)C)C(=O)O)c4N4CCC(C)(C)CC4)ccc3C2)cc1C", "note": "[Compound 78, (S)-2-(tert-butoxy)-2-(4-(4,4-dimethylpiperidin-1-yl)-2,6-dimethyl-5-(2-(2,4,5-trimethylbenzyl)-1,2,3,4-tetrahydroisoquinolin-6-yl)pyridin-3-yl)acetic acid]", "EC50": "< 0.1"},
      {"smiles": "Cc1cc(C)cc(CN2CCc3cc(-c4c(C)nc(C)c([C@H](OC(C)(C)C)C(=O)O)c4N4CCC(C)(C)CC4)ccc3C2)c1", "note": "[Compound 79, (S)-2-(tert-butoxy)-2-(5-(2-(3,5-dimethylbenzyl)-1,2,3,4-tetrahydroisoquinolin-6-yl)-4-(4,4-dimethylpiperidin-1-yl)-2,6-dimethylpyridin-3-yl)acetic acid]", "EC50": "< 0.1"},
      {"smiles": "Cc1cccc(CN2CCc3cc(-c4c(C)nc(C)c([C@H](OC(C)(C)C)C(=O)O)c4N4CCC(C)(C)CC4)ccc3C2)c1C", "note": "[Compound 80, (S)-2-(tert-butoxy)-2-(5-(2-(2,3-dimethylbenzyl)-1,2,3,4-tetrahydroisoquinolin-6-yl)-4-(4,4-dimethylpiperidin-1-yl)-2,6-dimethylpyridin-3-yl)acetic acid]", "EC50": "< 0.1"},
      {"smiles": "Cc1nc(C)c([C@H](OC(C)(C)C)C(=O)O)c(N2CCC(C)(C)CC2)c1-c1ccc2c(c1)CCN(Cc1cccc(C(C)(C)C)c1)C2", "note": "[Compound 81, (S)-2-(tert-butoxy)-2-(5-(2-(3-(tert-butyl)benzyl)-1,2,3,4-tetrahydroisoquinolin-6-yl)-4-(4,4-dimethylpiperidin-1-yl)-2,6-dimethylpyridin-3-yl)acetic acid]", "EC50": "< 0.1"},
      {"smiles": "Cc1nc(C)c([C@H](OC(C)(C)C)C(=O)O)c(N2CCC(C)(C)CC2)c1-c1ccc2c(c1)CCN(Cc1cccc(F)c1C)C2", "note": "[Compound 82, (S)-2-(tert-butoxy)-2-(4-(4,4-dimethylpiperidin-1-yl)-5-(2-(3-fluoro-2-methylbenzyl)-1,2,3,4-tetrahydroisoquinolin-6-yl)-2,6-dimethylpyridin-3-yl)acetic acid]", "EC50": "< 0.1"},
      {"smiles": "COc1cc(F)c(CN2CCc3cc(-c4c(C)nc(C)c([C@H](OC(C)(C)C)C(=O)O)c4N4CCC(C)(C)CC4)ccc3C2)cc1F", "note": "[Compound 83, (S)-2-(tert-butoxy)-2-(5-(2-(2,5-difluoro-4-methoxybenzyl)-1,2,3,4-tetrahydroisoquinolin-6-yl)-4-(4,4-dimethylpiperidin-1-yl)-2,6-dimethylpyridin-3-yl)acetic acid]", "EC50": "< 0.1"},
      {"smiles": "Cc1nc(C)c([C@H](OC(C)(C)C)C(=O)O)c(N2CCC(C)(C)CC2)c1-c1ccc2c(c1)CCN(Cc1cc(Cl)cc(Cl)c1OCc1ccccc1)C2", "note": "[Compound 85, (S)-2-(5-(2-(2-(benzyloxy)-3,5-dichlorobenzyl)-1,2,3,4-tetrahydroisoquinolin-6-yl)-4-(4,4-dimethylpiperidin-1-yl)-2,6-dimethylpyridin-3-yl)-2-(tert-butoxy)acetic acid]", "EC50": "< 0.1"},
      {"smiles": "COc1cc(F)c(F)cc1CN1CCc2cc(-c3c(C)nc(C)c([C@H](OC(C)(C)C)C(=O)O)c3N3CCC(C)(C)CC3)ccc2C1", "note": "[Compound 86, (S)-2-(tert-butoxy)-2-(5-(2-(4,5-difluoro-2-methoxybenzyl)-1,2,3,4-tetrahydroisoquinolin-6-yl)-4-(4,4-dimethylpiperidin-1-yl)-2,6-dimethylpyridin-3-yl)acetic acid]", "EC50": "< 0.1"},
      {"smiles": "COc1ccc(F)c(F)c1CN1CCc2cc(-c3c(C)nc(C)c([C@H](OC(C)(C)C)C(=O)O)c3N3CCC(C)(C)CC3)ccc2C1", "note": "[Compound 87, (S)-2-(tert-butoxy)-2-(5-(2-(2,3-difluoro-6-methoxybenzyl)-1,2,3,4-tetrahydroisoquinolin-6-yl)-4-(4,4-dimethylpiperidin-1-yl)-2,6-dimethylpyridin-3-yl)acetic acid]", "EC50": "< 0.1"},
      {"smiles": "Cc1nc(C)c([C@H](OC(C)(C)C)C(=O)O)c(N2CCC(C)(C)CC2)c1-c1ccc2c(c1)CCN(Cc1ccccc1OCCO)C2", "note": "[Compound 88, (S)-2-(tert-butoxy)-2-(4-(4,4-dimethylpiperidin-1-yl)-5-(2-(2-(2-hydroxyethoxy)benzyl)-1,2,3,4-tetrahydroisoquinolin-6-yl)-2,6-dimethylpyridin-3-yl)acetic acid]", "EC50": "< 0.1"},
      {"smiles": "CCOc1cc(Cl)cc(Cl)c1CN1CCc2cc(-c3c(C)nc(C)c([C@H](OC(C)(C)C)C(=O)O)c3N3CCC(C)(C)CC3)ccc2C1", "note": "[Compound 90, (S)-2-(tert-butoxy)-2-(5-(2-(2,4-dichloro-6-ethoxybenzyl)-1,2,3,4-tetrahydroisoquinolin-6-yl)-4-(4,4-dimethylpiperidin-1-yl)-2,6-dimethylpyridin-3-yl)acetic acid]", "EC50": "< 0.1"},
      {"smiles": "COc1ccc(CN2CCc3cc(-c4c(C)nc(C)c([C@H](OC(C)(C)C)C(=O)O)c4N4CCC(C)(C)CC4)ccc3C2)c(Cl)c1Cl", "note": "[Compound 91, (S)-2-(tert-butoxy)-2-(5-(2-(2,3-dichloro-4-methoxybenzyl)-1,2,3,4-tetrahydroisoquinolin-6-yl)-4-(4,4-dimethylpiperidin-1-yl)-2,6-dimethylpyridin-3-yl)acetic acid]", "EC50": "< 0.1"},
      {"smiles": "COc1ccc(F)c(CN2CCc3cc(-c4c(C)nc(C)c([C@H](OC(C)(C)C)C(=O)O)c4N4CCC(C)(C)CC4)ccc3C2)c1F", "note": "[Compound 92, (S)-2-(tert-butoxy)-2-(5-(2-(2,6-difluoro-3-methoxybenzyl)-1,2,3,4-tetrahydroisoquinolin-6-yl)-4-(4,4-dimethylpiperidin-1-yl)-2,6-dimethylpyridin-3-yl)acetic acid]", "EC50": "< 0.1"},
      {"smiles": "COc1cc(CN2CCc3cc(-c4c(C)nc(C)c([C@H](OC(C)(C)C)C(=O)O)c4N4CCC(C)(C)CC4)ccc3C2)c(F)cc1Cl", "note": "[Compound 93, (S)-2-(tert-butoxy)-2-(5-(2-(4-chloro-2-fluoro-5-methoxybenzyl)-1,2,3,4-tetrahydroisoquinolin-6-yl)-4-(4,4-dimethylpiperidin-1-yl)-2,6-dimethylpyridin-3-yl)acetic acid]", "EC50": "< 0.1"},
      {"smiles": "COc1cc(CN2CCc3cc(-c4c(C)nc(C)c([C@H](OC(C)(C)C)C(=O)O)c4N4CCC(C)(C)CC4)ccc3C2)c(F)cc1F", "note": "[Compound 94, (S)-2-(tert-butoxy)-2-(5-(2-(2,4-difluoro-5-methoxybenzyl)-1,2,3,4-tetrahydroisoquinolin-6-yl)-4-(4,4-dimethylpiperidin-1-yl)-2,6-dimethylpyridin-3-yl)acetic acid]", "EC50": "< 0.1"},
      {"smiles": "COc1c(F)cc(CN2CCc3cc(-c4c(C)nc(C)c([C@H](OC(C)(C)C)C(=O)O)c4N4CCC(C)(C)CC4)ccc3C2)cc1F", "note": "[Compound 95, (S)-2-(tert-butoxy)-2-(5-(2-(3,5-difluoro-4-methoxybenzyl)-1,2,3,4-tetrahydroisoquinolin-6-yl)-4-(4,4-dimethylpiperidin-1-yl)-2,6-dimethylpyridin-3-yl)acetic acid]", "EC50": "< 0.1"},
      {"smiles": "Cc1nc(C)c([C@H](OC(C)(C)C)C(=O)O)c(N2CCC(C)(C)CC2)c1-c1ccc2c(c1)CCN(Cc1cc(F)cc(F)c1F)C2", "note": "[Compound 96, (S)-2-(tert-butoxy)-2-(4-(4,4-dimethylpiperidin-1-yl)-2,6-dimethyl-5-(2-(2,3,5-trifluorobenzyl)-1,2,3,4-tetrahydroisoquinolin-6-yl)pyridin-3-yl)acetic acid]", "EC50": "< 0.1"},
      {"smiles": "COc1ccc(CN2CCc3cc(-c4c(C)nc(C)c([C@H](OC(C)(C)C)C(=O)O)c4N4CCC(C)(C)CC4)ccc3C2)cc1F", "note": "[Compound 97, (S)-2-(tert-butoxy)-2-(4-(4,4-dimethylpiperidin-1-yl)-5-(2-(3-fluoro-4-methoxybenzyl)-1,2,3,4-tetrahydroisoquinolin-6-yl)-2,6-dimethylpyridin-3-yl)acetic acid]", "EC50": "< 0.1"}
    ]},
    {"test_system": "NL-RLuc virus", "test": "Inhibition of HIV replication (NL-RLuc reporter virus in MT-2 cells, luciferase readout)", "assay_type": "cell-based", "settings": "Human immunodeficiency virus 1, MT2, 120 h, read-out: EC50 μM", "in_short": "as §1", "units": {"EC50": "µM"}, "values": [
      {"smiles": "Cc1ccc(CN2CCc3cc(-c4c(C)nc(C)c([C@H](OC(C)(C)C)C(=O)O)c4N4CCC(C)(C)CC4)ccc3C2)c(F)c1F", "note": "[Compound 73, (S)-2-(tert-butoxy)-2-(5-(2-(2,3-difluoro-4-methylbenzyl)-1,2,3,4-tetrahydroisoquinolin-6-yl)-4-(4,4-dimethylpiperidin-1-yl)-2,6-dimethylpyridin-3-yl)acetic acid]", "EC50": 0.007},
      {"smiles": "Cc1cccc(CN2CCc3cc(-c4c(C)nc(C)c([C@H](OC(C)(C)C)C(=O)O)c4N4CCC(C)(C)CC4)ccc3C2)c1C", "note": "[Compound 80, (S)-2-(tert-butoxy)-2-(5-(2-(2,3-dimethylbenzyl)-1,2,3,4-tetrahydroisoquinolin-6-yl)-4-(4,4-dimethylpiperidin-1-yl)-2,6-dimethylpyridin-3-yl)acetic acid]", "EC50": 0.003},
      {"smiles": "Cc1nc(C)c([C@H](OC(C)(C)C)C(=O)O)c(N2CCC(C)(C)CC2)c1-c1ccc2c(c1)CCN(Cc1ccccc1OCCO)C2", "note": "[Compound 88, (S)-2-(tert-butoxy)-2-(4-(4,4-dimethylpiperidin-1-yl)-5-(2-(2-(2-hydroxyethoxy)benzyl)-1,2,3,4-tetrahydroisoquinolin-6-yl)-2,6-dimethylpyridin-3-yl)acetic acid]", "EC50": 0.012},
      {"smiles": "Cc1nc(C)c([C@H](OC(C)(C)C)C(=O)O)c(N2CCC(C)(C)CC2)c1-c1ccc2c(c1)CCN(Cc1cc(F)cc(F)c1F)C2", "note": "[Compound 96, (S)-2-(tert-butoxy)-2-(4-(4,4-dimethylpiperidin-1-yl)-2,6-dimethyl-5-(2-(2,3,5-trifluorobenzyl)-1,2,3,4-tetrahydroisoquinolin-6-yl)pyridin-3-yl)acetic acid]", "EC50": 0.003}
    ]}
  ]
}
